These results are taken from paper PMC11968394, “The effect of deuterated PLK1 inhibitor on its safety and efficacy in vivo” (Frontiers in Oncology, 2025).

One series deals with DRAK1 (Homo sapiens, UniProt Q9UEE5). Nature of the series: Kinase assay DRAK1. The class given is biochemical. On the procedure: Serial dilutions in DMSO were prepared. PLK1 was serially diluted 5-fold from 10 μM, yielding concentrations from 10000 nM to 0.00512 nM. Other targets were serially diluted 3-fold from 10 μM, yielding concentrations from 10000 nM to 0.5 nM. We have used two kinase assays: HTRF assay and ADG-Glo assay.
Chain of DRAK1 (Q9UEE5 whole entry, species assumed): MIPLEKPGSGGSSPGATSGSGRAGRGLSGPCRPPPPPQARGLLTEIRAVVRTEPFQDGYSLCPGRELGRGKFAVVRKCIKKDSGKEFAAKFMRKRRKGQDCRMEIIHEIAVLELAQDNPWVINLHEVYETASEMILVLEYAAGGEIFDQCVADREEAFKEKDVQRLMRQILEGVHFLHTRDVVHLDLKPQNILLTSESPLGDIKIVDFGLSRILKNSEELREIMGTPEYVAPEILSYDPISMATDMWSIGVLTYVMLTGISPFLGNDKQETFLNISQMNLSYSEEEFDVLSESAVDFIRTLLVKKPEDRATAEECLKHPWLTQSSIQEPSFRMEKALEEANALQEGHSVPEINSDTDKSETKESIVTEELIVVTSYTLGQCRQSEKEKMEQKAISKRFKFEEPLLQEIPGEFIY
For HTRF Assay, 2× ATP/substrate solution and 2× kinase solution were prepared in kinase reaction buffer. Using an Echo 655, 50 nL of each diluted compound was transferred to a 384-well detection plate. The plate was centrifuged at 1000 rpm for 1 minute. 2.5 μL of 2× kinase solution was added to each well. The plate was incubated at 25°C for 10 minutes. 2.5 μL of 2× ATP/substrate solution was added to each well. The plate was centrifuged at 1000 rpm for 1 minute. The plate was incubated at 25°C for 40 minutes. 2× XL665 and antibody detection reagent were prepared in detection buffer. 5 μL of the prepared kinase detection reagent was added to each well. The plate was centrifuged at 1000 rpm for 1 minute. The plate was incubated at 25°C for 1 hour. Fluorescence signals at 620 nm (Cryptate) and 665 nm (XL665) were measured using a multifunction plate reader.
For ADP-Glo Assay, 2× ATP/substrate solution and 2× kinase solution were prepared in kinase reaction buffer. […] Luminescence signals were measured using a multifunction plate reader.

The test system of another series is PSN1. Nature of the series: Cell viability (CellTiter-Glo, 72 h), PSN1. The class given is cell-based, Human. As to conditions: PSN1, 72 hours; for IC50: Homo sapiens; for Bottom: dose-response curve bottom; for Top: dose-response curve top. How it is done:
(§1) Human pancreatic cancer cell lines (PSN1, PANC-1, Panc 04.03, MIA PaCa-2, BxPC-3, and Capan-1) were cultured in their respective culture media. PSN1 cell lines were maintained in RPMI 1640 + 10%FBS. MIA PaCa-2 cells were cultured in DMEM+10%FBS+5% horse serum. Panc 04.03 cells were grown in RPMI 1640 + 15%FBS+10μg/mL Insulin. PANC-1 cells were maintained in DMEM+10%FBS. BxPC-3 cells were cultured in RPMI 1640 + 10%FBS. Capan-1 cells were grown in IMDM+20%FBS. All cells were incubated at 37°C in a humidified atmosphere containing 5% CO2.
(§2) For assays, cells in the logarithmic growth phase were harvested, seeded to different concentrations at 2,000-6,000 cells/well in 96-well plates. Following overnight incubation, test compounds were added at various concentrations and incubated for 72 hours. Cell viability was assessed by the ATP concentration using the CellTiter-Glo reagent (Promega, Madison, WI 53711 USA), and luminescence values were recorded by a Multilabel Reader (PerkinElmer, Waltham, MA, USA).

The next series relates to Panc04.03. As to the kind of experiment: Cell viability (CellTiter-Glo, 72 h), Panc04.03. The class given is cell-based, Human. As to conditions: Panc04.03, 72 hours; for IC50: Homo sapiens, Panc 04.03; for Bottom: dose-response curve bottom; for Top: dose-response curve top. On the procedure:
as §1, §2
(In general: Cellular ATP, detected with luciferase, serves as a proxy for viable cell number.)

The test system of another series is MIA PaCa-2. As to the kind of experiment: Cell viability (CellTiter-Glo, 72 h), MIA PaCa-2. In kind it is cell-based, Human. Particulars: MIA PaCa-2, 72 hours; for IC50: Homo sapiens; for Bottom: dose-response curve bottom; for Top: dose-response curve top. On the procedure:
as §1, §2

In another series the test system is HCT 116 CDX model. As to the kind of experiment: HCT 116 CDX model. Particulars: for Tumor growth: BALB/c nude mice; for Mice died: BALB/c nude, 8 mice/group. In kind it is in vivo, BALB/c nude mouse. How it is done:
These studies were performed at Yikon Medical (Beijing, China). Cancer cell line HCT 116 or BxPC-3 were cultured in 10% FBS RPMI-1640 medium plus penicillin, streptomycin, and glutamine at 37°C and 5% CO2 until reaching confluency. Cells were then prepared for inoculation. 5×10⁷ cells/mL cells in 100 µL were inoculated subcutaneously into the right flank of each female BALB/c nude mouse for HCT 116 cell line or female NOD SCID mouse for BxPC-3 cell line. […] […] Mice were dosed at least 10 days and were monitored for 30 days.
TGI was calculated as follows.

On the set-up of series [1]: method as in PMID 28726132. As to conditions: phase 1 clinical trial, given dosage, 5-day dosing time period; cited from earlier work.

Where “and” joins values, the source holds several entries; their conditions need not be identical. Equal entries are not always repeated.

With `CN1CCN(c2ccc(OC(F)(F)F)c(Nc3ncc4c(n3)-c3c(c(C(N)=O)nn3CCO)CC4)c2)CC1` [NMS-P937], the IC50 (commonly the concentration that gives 50% inhibition) was 44.6 nM on DRAK1, 48.9 nM with PSN1, 73 nM in the series with Panc04.03 and 196 nM in the series with MIA PaCa-2. Moreover, the values for the Bottom in the series on PSN1, in the series on Panc04.03 and with MIA PaCa-2 were 2.3, -4 and -4.1, respectively. The values for the Top with PSN1, in the series on Panc04.03 and in the series on MIA PaCa-2 were 85.9, 29.5 and 78.7, respectively. The Body weight entry with HCT 116 CDX model (60 mg/kg) is given as “significant loss of body weight”. Besides, the Tumor growth entry in the series on HCT 116 CDX model is listed as “inhibited the growth of tumors in a dose-dependent manner”. Also, the Mice died entry is “one mouse died and 1/8” in the series with HCT 116 CDX model (30 mg/kg, 30 mg/kg); “three mice died and 3/8” in the series with HCT 116 CDX model (60 mg/kg, 60 mg/kg). In series [1], the Tolerability entry is “well tolerated”.
Turning to `[2H]C1([2H])N(C)C([2H])([2H])C([2H])([2H])N(c2ccc(OC(F)(F)F)c(Nc3ncc4c(n3)-c3c(c(C(N)=O)nn3CCO)CC4)c2)C1([2H])[2H]` [PR00012], the IC50 worked out at 48.7 nM at DRAK1, 60.7 nM with PSN1, 83.8 nM in the series with Panc04.03 and 262 nM with MIA PaCa-2. The Bottom with PSN1 stood at 13.7; in the series with Panc04.03 it was 10.8; with MIA PaCa-2 it was 8.4. The results for the Top in the series on PSN1, with Panc04.03 and in the series with MIA PaCa-2 were 93.7, 42.5 and 86.8, respectively. Besides, the Tumor growth result with HCT 116 CDX model is recorded as “inhibited the growth of tumors in a dose-dependent manner”. In addition, the Mice died result with HCT 116 CDX model (30 mg/kg) is “No mice died”; in the series with HCT 116 CDX model (60 mg/kg, 60 mg/kg), “one mouse died and 1/8”.
